Key:
[1] = molecular target: MCL-1 (Homo sapiens (Human), UniProt Q07820); test: Cell free Mcl-1:Bim affinity assay (fluorescence polarization competition); assay type: binding; conditions: 15 nM MCL-1, 5 nM FITC-Bim, 1 hour at room temperature; class symbols; read-out: BIM_Ki
Summary of the method: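 Compounds competed with FITC-labelled Bim peptide (5 nM) for MCL-1 (15 nM) in HEPES/NaCl buffer with 1% DMSO, 1 h at room temperature. Fluorescence polarization (535 nm emission) gave % inhibition versus DMSO and positive controls; IC50 from 10-point curves, converted to Ki by the Nikolovska-Coleska equation.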

[2] = tested on: H929 cells; test: Cell viability assay (H929 10 FBS); assay type: cell-based; conditions: Homo sapiens, NCI-H929, 24 hours, read-out: H929_10FBS IC50
Summary of the method: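 H929 cells, 4000/well, in RPMI 1640 with 10% FBS, sodium pyruvate, HEPES and glucose were exposed to compound 24 h at 37 °C. Viability read as luminescence after 30-60 min at RT with CellTiter-Glo or ATPlite 1 Step.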

Sequence of MCL-1 (Q07820 whole entry): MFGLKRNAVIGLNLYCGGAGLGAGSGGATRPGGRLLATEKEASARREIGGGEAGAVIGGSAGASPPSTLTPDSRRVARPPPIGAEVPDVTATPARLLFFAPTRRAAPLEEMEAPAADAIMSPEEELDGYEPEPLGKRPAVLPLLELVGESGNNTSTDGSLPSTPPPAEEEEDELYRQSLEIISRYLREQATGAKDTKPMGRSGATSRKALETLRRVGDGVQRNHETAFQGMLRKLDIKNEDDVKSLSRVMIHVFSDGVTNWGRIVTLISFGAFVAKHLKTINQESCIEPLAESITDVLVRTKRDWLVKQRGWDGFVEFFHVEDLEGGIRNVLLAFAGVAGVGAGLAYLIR

Compound | Ki [1] | IC50 [2]
CN1C(=O)OC[C@@H]2CC[C@H]2CN2C[C@@]3(CCCc4cc(Cl)ccc43)COc3ccc(cc32)S(=O)(=O)NC(=O)N2CC[C@@H]1C2 [Example 101, (3R,6R,11R,24S)-6′-Chloro-10-methyl-17,17-dioxo-spiro[8,22-dioxa-17-thia-1,10,14,16-tetrazapentacyclo[16.7.2.111,14.03,6.021,26]octacosa-18(27),19,21(26)-triene-24,1′-tetralin]-9,15-dione] | < 1 nM | > 1000 nM
O=C1N[C@@H]2CCN(C2)C(=O)NS(=O)(=O)c2ccc3c(c2)N(C[C@@H]2CC[C@H]2CO1)C[C@@]1(CCCc2cc(Cl)ccc21)CO3 [Example 102, (3R,6R,11R,24S)-6′-Chloro-17,17-dioxo-spiro[8,22-dioxa-17-thia-1,10,14,16-tetrazapentacyclo[16.7.2.111,14.03,6.021,26]octacosa-18(27),19,21(26)-triene-24,1′-tetralin]-9,15-dione] | 1 to 100 nM | > 1000 nM
CN1C(=O)OC[C@@H]2CC[C@H]2CN2C[C@@]3(CCCc4cc(Cl)ccc43)COc3ccc(cc32)S(=O)(=O)NC(=O)N2CC[C@H]1C2 [Example 103, (3R,6R,11S,24S)-6′-Chloro-10-methyl-17,17-dioxo-spiro[8,22-dioxa-17λ^6-thia-1,10,14,16-tetrazapentacyclo[16.7.2.1^11,14.0{circumflex over (°)}3,6.0^21,26]octacosa-18,20,26-triene-24,1′-tetralin]-9,15-dione] | < 1 nM | > 1000 nM
O=C1Cc2cc(OCCN3CCOCC3)cc(c2)OC[C@@H]2CC[C@H]2CN2C[C@@]3(CCCc4cc(Cl)ccc43)COc3ccc(cc32)S(=O)(=O)N1 [Example 105, (3R,6R,24S)-6′-Chloro-11-(2-morpholinoethoxy)-17,17-dioxo-spiro[8,22-dioxa-17-thia-1,16-diazapentacyclo[16.7.2.19,13.03,6.021,26]octacosa-9(28),10,12,18(27),19,21(26)-hexaene-24,1′-tetralin]-15-one] | 1 to 100 nM | > 1000 nM
CC(C)N1CCN(CC2(O)/C=C/COC(C)(C)C(=O)NS(=O)(=O)c3ccc4c(c3)N(C[C@@H]3CC[C@H]32)C[C@@]2(CCCc3cc(Cl)ccc32)CO4)CC1 (stereo partly drawn) [Example 109, (3R,6R,8E,22S)-6′-Chloro-7-hydroxy-7-[(4-isopropylpiperazin-1-yl)methyl]-12,12-dimethyl-15,15-dioxo-spiro[11,20-dioxa-15-thia-1,14-diazatetracyclo[14.7.2.03,6.019,24]pentacosa-8,16,18,24-tetraene-22,1′-tetralin]-13-one] | 1 to 100 nM | > 1000 nM
CO[C@H]1/C=C/COCC(=O)NS(=O)(=O)c2ccc3c(c2)N(C[C@@H]2CC[C@H]21)C[C@@]1(CCCc2cc(Cl)ccc21)CO3 [Example 111, (3R,6R,7S,8E,22S)-6′-Chloro-7-methoxy-15,15-dioxo-spiro[[11,20]dioxa[15]thia-1,14-diazatetracyclo[14.7.2.03,6.019,24]pentacosa[8,16(25),17,19(24)]tetraene-22,1′-tetralin]-13-one] | 1 to 100 nM | > 1000 nM
CC(=O)O[C@H]1/C=C/CO[C@@H](C)C(=O)NS(=O)(=O)c2ccc3c(c2)N(C[C@@H]2CC[C@H]21)C[C@@]1(CCCc2cc(Cl)ccc21)CO3 [Example 113, [(3R,6R,7S,8E,12S,22S)-6′-Chloro-12-methyl-13,15,15-trioxo-spiro[11,20-dioxa-15-thia-1,14-diazatetracyclo[14.7.2.03,6.019,24]pentacosa-8,16,18,24-tetraene-22,1′-tetralin]-7-yl] acetate] | < 1 nM | < 1000 nM
CO[C@@H]1/C=C/CNC2(CCC2)C(=O)NS(=O)(=O)c2ccc3c(c2)N(C[C@@H]2CC[C@H]21)C[C@@]1(CCCc2cc(Cl)ccc21)CO3 [Example 116, (3R,6R,7R,8E,22S)-6′-Chloro-7-methoxy-12,12-(1,3-propylene)-15,15-dioxo-spiro[[20]oxa-15-thia-1,11,14-triazatetracyclo[14.7.2.03,6.019,24]pentacosa[8,16(25),17,19(24)]tetraene-22,1′-tetralin]-13-one] | 1 to 100 nM | < 1000 nM
CO[C@@H]1/C=C/CN(C)C2(CCC2)C(=O)NS(=O)(=O)c2ccc3c(c2)N(C[C@@H]2CC[C@H]21)C[C@@]1(CCCc2cc(Cl)ccc21)CO3 [Example 120, (3R,6R,7R,8E,22S)-6′-Chloro-7-methoxy-11-methyl-12,12-(1,3-propylene)-15,15-dioxo-spiro[20-oxa-15-thia-1,11,14-triazatetracyclo[14.7.2.03,6.019,24]pentacosa[8,16(25),17,19(24)]tetraene-22,1′-tetralin]-13-one] | 1 to 100 nM | < 1000 nM

More lines, now with the values ahead:

Ki [1] | IC50 [2] | Compound
1 to 100 nM | < 1000 nM | CO[C@@H]1/C=C/CCN(C)C(=O)NS(=O)(=O)c2ccc3c(c2)N(C[C@@H]2CC[C@H]21)C[C@@]1(CCCc2cc(Cl)ccc21)CO3 [Example 107, (3R,6R,7R,8E,22S)-6′-Chloro-7-methoxy-12-methyl-15,15-dioxo-spiro[20-oxa-15-thia-1,12,14-triazatetracyclo[14.7.2.03,6.019,24]pentacosa-8,16,18,24-tetraene-22,1′-tetralin]-13-one]
1 to 100 nM | > 1000 nM | CO[C@@H]1/C=C/COCC(=O)NS(=O)(=O)c2ccc3c(c2)N(C[C@@H]2CC[C@H]21)C[C@@]1(CCCc2cc(Cl)ccc21)CO3 [Example 112, (3R,6R,7R,8E,22S)-6′-Chloro-7-methoxy-15,15-dioxo-spiro[[11,20]dioxa[15]thia-1,14-diazatetracyclo[14.7.2.03,6.019,24]pentacosa[8,16(25),17,19(24)]tetraene-22,1′-tetralin]-13-one]
< 1 nM | < 1000 nM | CO[C@@H]1/C=C/CO[C@@H](C)C(=O)NS(=O)(=O)c2ccc3c(c2)N(C[C@@H]2CC[C@H]21)C[C@@]1(CCCc2cc(Cl)ccc21)CO3 [Example 114, (3R,6R,7R,8E,12S,22S)-6′-Chloro-7-methoxy-12-methyl-15,15-dioxo-spiro[11,20-dioxa-15-thia-1,14-diazatetracyclo[14.7.2.03,6.019,24]pentacosa-8,16,18,24-tetraene-22,1′-tetralin]-13-one]
1 to 100 nM | > 1000 nM | CO[C@@H]1/C=C/CO[C@H](C)C(=O)NS(=O)(=O)c2ccc3c(c2)N(C[C@@H]2CC[C@H]21)C[C@@]1(CCCc2cc(Cl)ccc21)CO3 [Example 115, (3R,6R,7R,8E,12R,22S)-6′-Chloro-7-methoxy-12-methyl-15,15-dioxo-spiro[11,20-dioxa-15-thia-1,14-diazatetracyclo[14.7.2.03,6.019,24]pentacosa-8,16,18,24-tetraene-22,1′-tetralin]-13-one]
1 to 100 nM | > 1000 nM | CO[C@@H]1/C=C/CN[C@@H](C)C(=O)NS(=O)(=O)c2ccc3c(c2)N(C[C@@H]2CC[C@H]21)C[C@@]1(CCCc2cc(Cl)ccc21)CO3 [Example 117, (3R,6R,7R,8E,12S,22S)-6′-Chloro-7-methoxy-12-methyl-15,15-dioxo-spiro[20-oxa-15-thia-1,11,14-triazatetracyclo[14.7.2.03,6.019,24]pentacosa-8,16(25),17,19(24)-tetraene-22,1′-tetralin]-13-one]
1 to 100 nM | > 1000 nM | CO[C@@H]1/C=C\CN[C@@H](C)C(=O)NS(=O)(=O)c2ccc3c(c2)N(C[C@@H]2CC[C@H]21)C[C@@]1(CCCc2cc(Cl)ccc21)CO3 [Example 118, (3R,6R,7R,8Z,12S,22S)-6′-Chloro-7-methoxy-12-methyl-15,15-dioxo-spiro[20-oxa-15-thia-1,11,14-triazatetracyclo[14.7.2.03,6.019,24]pentacosa-8,16(25),17,19(24)-tetraene-22,1′-tetralin]-13-one]
1 to 100 nM | < 1000 nM | CO[C@@H]1/C=C/CNC2(CC2)C(=O)NS(=O)(=O)c2ccc3c(c2)N(C[C@@H]2CC[C@H]21)C[C@@]1(CCCc2cc(Cl)ccc21)CO3 [Example 119, (3R,6R,7R,8E,22S)-6′-Chloro-7-methoxy-12,12-ethylene-15,15-dioxo-spiro[20-oxa-15-thia-1,11,14-triazatetracyclo[14.7.2.03,6.019,24]pentacosa[8,16(25),17,19(24)]tetraene-22,1′-tetralin]-13-one]
1 to 100 nM | > 1000 nM | CO[C@@H]1/C=C/CN[C@H](C)C(=O)NS(=O)(=O)c2ccc3c(c2)N(C[C@@H]2CC[C@H]21)C[C@@]1(CCCc2cc(Cl)ccc21)CO3 [Example 121, (3R,6R,7R,8E,12R,22S)-6′-Chloro-7-methoxy-12-methyl-15,15-dioxo-spiro[20-oxa-15-thia-1,11,14-triazatetracyclo[14.7.2.03,6.019,24]pentacosa-8,16(25),17,19(24)-tetraene-22,1′-tetralin]-13-one]
1 to 100 nM | > 1000 nM | CO[C@@H]1/C=C\CN[C@H](C)C(=O)NS(=O)(=O)c2ccc3c(c2)N(C[C@@H]2CC[C@H]21)C[C@@]1(CCCc2cc(Cl)ccc21)CO3 [Example 122, (3R,6R,7R,8Z,12R,22S)-6′-Chloro-7-methoxy-12-methyl-15,15-dioxo-spiro[20-oxa-15-thia-1,11,14-triazatetracyclo[14.7.2.03,6.019,24]pentacosa-8,16(25),17,19(24)-tetraene-22,1′-tetralin]-13-one]
1 to 100 nM | < 1000 nM | CO[C@@H]1/C=C/CN(C)[C@H](C)C(=O)NS(=O)(=O)c2ccc3c(c2)N(C[C@@H]2CC[C@H]21)C[C@@]1(CCCc2cc(Cl)ccc21)CO3 [Example 123, (3R,6R,7R,8E,12R,22S)-6′-Chloro-7-methoxy-11,12-dimethyl-15,15-dioxo-spiro[20-oxa-15-thia-1,11,14-triazatetracyclo[14.7.2.03,6.019,24]pentacosa-8,16(25),17,19(24)-tetraene-22,1′-tetralin]-13-one]
